What was measured:
Format in all cases: in vivo
[1] = test system: human bladder cancer cells (T24); assay: Pulmonary metastases of T24 human bladder cancer cells injected via tail vein into SCID-beige mice; settings: for Number of metastases (mean ± SEM), T-24, with Enalapril: enalapril 10 mg/kg intraperitoneal twice a day, alone or with Cyclosporine 20 mg/kg or FK506 4 mg/kg every other day; for Incidence of tumors as compared to controls: summary of Table I (T24 and Renca) and Example 3 (T-24), in the absence of immunosuppressive agent
Protocol: (§1) In vivo tumor growth. Murine renal cell adenocarinoma cells (1×10^5 in Hanks balanced salt solution), murine Lewis lung carcinoma cells (1×10^5 cells), or human bladder cancer cells (1×10^5 cells) are injected via the tail vein into 6-wk old male SCID-beige mice. […] On day 19 or 23 post tumor inoculation, mice are killed and the number of pulmonary metastases is determined […] endotracheal insufflation of lungs with 15% India ink solution and bleaching the harvested lungs in Fekete's solution.
(§2) SCID-beige (immunodeficient) mice were inoculated with human bladder cancer cells (T24) or murine renal cancer cells (Renca). Tumor bearing mice were then treated with cyclosporin A or the angiotensin II receptor blocker, losartan or both.
(§3) Tumor cells (1×10^5 in HBSS) were injected via the tail vein into SCID-beige mice. […] The mice were sacrificed on day 19 (Renca) and day 23 (T24) and the number of metastases was counted as described (reference 7).

[2] = test system: pulmonary metastasis; assay: Tumor progression / development of pulmonary metastasis in experimental animals (Example 2)
[3] = test system: murine renal cancer cells (Renca); assay: Pulmonary metastases of Renca murine renal cancer cells injected via tail vein into SCID-beige mice; settings: 1×10^5 Renca cells via tail vein, sacrificed day 19, CsA 20 mg/kg SQ QOD, Losartan 10 mg/kg SQ BID, untreated 125 ± 22
Protocol: as §1, with “solution. The effect of angiotensin II inhibitors and anti-angiotensin II mAbs and the control IgG1 mAbs on CsA-induced increase in the number of pulmonary metastases is determined by intraperitoneal administration of 200 μg of mAbs, on a daily basis starting from day −1 to day 19 post tumor inoculation.” for “solution.”
as §2, §3

[4] = SCID beige mice, 100,000 T-24 cells by tail vein

CCOC(=O)[C@H](CCc1ccccc1)N[C@@H](C)C(=O)N1CCC[C@H]1C(=O)O [Enalapril]
Number of metastases (mean ± SEM), T-24, with Enalapril [1, 4]: 21 ± 3 | Incidence of tumors as compared to controls [1]: reduces the incidence of tumors as compared to controls | Effect on development of pulmonary metastasis [2]: prevented the development of pulmonary metastasis

C=CC[C@@H]1/C=C(\C)C[C@H](C)C[C@H](OC)[C@H]2O[C@@](O)(C(=O)C(=O)N3CCCC[C@H]3C(=O)O[C@H](/C(C)=C/[C@@H]3CC[C@@H](O)[C@H](OC)C3)[C@H](C)[C@@H](O)CC1=O)[C@H](C)C[C@@H]2OC [FK506]
Number of metastases (mean ± SEM), T-24, without Enalapril ([1]; SCID beige mice, 100,000 T-24 cells by tail vein, Cyclosporine 20 mg/kg or FK506 4 mg/kg every other day, no enalapril, untreated 38 ± 4): 72 ± 21 | Number of metastases (mean ± SEM), T-24, with Enalapril [1, 4]: 30 ± 2

CCCCc1nc(Cl)c(CO)n1Cc1ccc(-c2ccccc2-c2nn[nH]n2)cc1 [Losartan]
Number of Pulmonary Metastases (Mean ± SEM), T24 ([1]; SCID-beige mice, 1×10^5 T24 cells via tail vein, sacrificed day 23, CsA 20 mg/kg SQ QOD, Losartan 10 mg/kg SQ BID, untreated 25 ± 7): 12 ± 3 | Incidence of tumors as compared to controls [1]: reduces the incidence of tumors as compared to controls | Number of Pulmonary Metastases (Mean ± SEM), Renca [3]: 67 ± 15

From US6641811B1, “Use of angiotensin II inhibitors to prevent malignancies associated with immunosuppression” (Cornell Research Foundation, Inc., priority 2000, dated 2003)
